Measured values taken from paper PMC8123395, “Aggregation and Its Influence on the Bioactivities of a Novel Antimicrobial Peptide, Temporin-PF, and Its Analogues” (International Journal of Molecular Sciences, 2021).
No end group written: not given here.

Experiments:
S. aureus (NCTC 10788) = assay: SYTOX Green stain uptake assay (membrane permeabilization); format: cell-based; details: peptide 10 µM, within 120 min, 37 °C, relative to 70% isopropanol-treated cells, three replicates
Experimental: Figure 10 Membrane permeabilization effect of TPF and the analogs (10 µM) on Gram-positive bacteria S. aureus was indicated by the uptake of SYTOX Green dye over 120 min. The error bar represents SD of three replicates.
A membrane permeability assay was conducted on S. aureus (NCTC 10788) and E.coli (NCTC 10418) using the SYTOX™ Green Nucleic Acid Stain (Thermo Fisher Scientific, Waltham, MA, USA) as described previously, with some modifications. For S. aureus, to obtain the fluorescence kinetics of membrane permeabilization, the bacterial suspension and peptide solutions, prepared in 5% tryptic soy broth (TSB) (v/v) in 0.85% NaCl solution (m/v), were mixed to give a final concentration at 10 µM in a black 96-well plate, and further incubated for 120 min at 37 °C. Subsequently, 5 µM SYTOX Green nucleic acid stain was added into each well and immediately detected by a fluorescent plate reader with excitation of 485 nm and emission of 528 nm. The total permeabilized cells of S. aureus were prepared by treating with 70% isopropanol and further resuspended in 5% TSB/0.85% NaCl solution after washing.

[1] = Observation of aggregation: turbidity (absorbance at 600 nm) in media and salt solutions; format: physicochemical; details: peptide 1 mg/mL; 0.25, 0.5 and 1 M Na2HPO4, CaCl2 or MgCl2; absorbance 600 nm
Experimental: Figure 3 The absorbance of TPF and the analogs prepared in (a) a series of culture media, including PBS, RPMI1640, RPMI1640 with 10% FBS, TSB, and MHB; 0.25, 0.5, and 1 M of (b) Na2HPO4, (c) CaCl2, and (d) MgCl2 solutions. Peptide solutions were prepared from 1 mg/mL, and the wavelength was set as 600 nm. The error bar represents the standard deviation (SD) with three replicates.
The method was followed the previous study with modifications. The purified peptides were prepared at 10 mg/mL in water and subsequently diluted with different solutions, including PBS, RPMI1640, RPMI1640 with 10% FBS, TSB, MHB, Na2HPO4 (0.25, 0.5, and 1 M), CaCl2 (0.25, 0.5, and 1 M), and MgCl2 (0.25, 0.5, and 1 M), in a 96-well plate to achieve the final concentration of 1 mg/mL. The turbidity of each well was detected using the absorbance at 600 nm by a plate reader. The peptides dissolved in water were applied as negative control.

Q: Which membrane permeabilization (S. aureus (NCTC 10788)) does the source give for LPLIAGLFGKIF-NH2 [des-Phe1 TPF] here?
A: The membrane permeabilization was “over 50%”.

Q: And the “aggregation (salting-out) in salt solutions” value [1]?
A: Its value is “low degree of capability for aggregation”.
